Source: patent publication US6605625B2, “Ortho, meta-substituted bisaryl compounds, processes for their preparation, their use as medicaments, and pharmaceutical preparations comprising them” (Aventis Pharma Deutschland GmbH, priority 2000, dated 2003)

Target: T1, Kv1.5 channels from humans (Homo sapiens, UniProt P22460)
T1 construct: expressed in transfected cells; host or cells: Xenopus laevis oocytes injected with in vitro synthesized RNA
Test: Kv1.5 currents in Xenopus oocytes, 2-microelectrode voltage clamp
Assay type: cell-based
Conditions: human Kv1.5 expressed in Xenopus laevis oocytes; voltage jumps to 0 mV and 40 mV, 500 ms; room temperature; inhibition of Kv1.5 control current, Hill equation
Description: Kv1.5 channels from humans were expressed in Xenopus oocytes. To this end, oocytes from Xenopus laevis were first isolated and defolliculated. RNA coding for Kv1.5 synthesized in vitro was then injected into these oocytes. After a Kv1.5 protein expression for 1-7 days, Kv1.5 currents were measured on the oocytes using the 2-microelectrode voltage clamp technique. The Kv1.5 channels were in this case as a rule activated using voltage jumps to 0 mV and 40 mV lasting 500 ms. The bath was rinsed using a solution of the following composition: NaCl 96 mM, KCl 2 mM, CaCl2 1.8 mM, MgCl2 1 mM, HEPES 5 mM (titrated with NaOH to pH 7.4). These experiments were carried out at room temperature. The following were employed for data acquisition and analysis: Gene clamp amplifier (Axon Instruments, Foster City, USA) and MacLab D/A converter and software (ADInstruments, Castle Hill, Australia). The substances according to the invention were tested by adding them to the bath solution in different concentrations. The effects of the substances were calculated as the percentage inhibition of the Kv1.5 control current which was obtained when no substance was added to the solution. The data were then extrapolated using the Hill equation in order to determine the inhibition concentrations IC50 for the respective substances.

T1 sequence (P22460 whole entry): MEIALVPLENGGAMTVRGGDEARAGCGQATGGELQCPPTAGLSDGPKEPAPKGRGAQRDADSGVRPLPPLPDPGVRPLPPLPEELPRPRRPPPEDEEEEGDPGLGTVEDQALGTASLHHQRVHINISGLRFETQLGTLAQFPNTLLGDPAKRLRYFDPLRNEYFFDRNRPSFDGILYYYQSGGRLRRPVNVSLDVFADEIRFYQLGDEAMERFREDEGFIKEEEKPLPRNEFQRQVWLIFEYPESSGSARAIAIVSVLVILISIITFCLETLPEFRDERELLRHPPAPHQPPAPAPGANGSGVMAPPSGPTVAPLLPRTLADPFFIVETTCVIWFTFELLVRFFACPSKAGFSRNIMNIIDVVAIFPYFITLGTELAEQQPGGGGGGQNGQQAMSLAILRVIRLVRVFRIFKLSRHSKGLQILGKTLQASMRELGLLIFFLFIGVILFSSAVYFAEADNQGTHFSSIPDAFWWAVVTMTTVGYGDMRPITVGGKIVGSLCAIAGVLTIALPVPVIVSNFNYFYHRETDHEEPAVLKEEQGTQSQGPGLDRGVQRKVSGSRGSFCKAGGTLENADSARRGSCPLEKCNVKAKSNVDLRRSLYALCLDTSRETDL

IC50 | Compound
< 100 µM | CCOc1ccc(C(=O)NCc2ccccc2-c2cccc(C(=O)Nc3ccc(OC)cc3)n2)cc1 [Example 24]
< 100 µM | CC(C)C[C@H](NC(=O)c1cccc(-c2ccccc2CNC(=O)OC(C)(C)C)n1)C(N)=O [Example 10]
2.2 µM | C[C@H](OC(=O)NCc1ccccc1-c1cccc(C(=O)NCCc2ccccn2)n1)c1ccccc1 [Example 12, (S)-1-(Phenylethyl) {2-[6-(2-pyridin-2-ylethylcarbamoyl)pyridin-2-yl]benzyl}carbamate]
6 µM | CC(C)CCNC(=O)c1cccc(-c2ccccc2CNC(=O)OC(C)(C)C)n1 [Example 5]
5.7 µM | COc1ccc(CC(=O)NCc2ccccc2-c2cccc(C(=O)NCc3ccc(F)cc3F)n2)cc1 [Example 21]
10 µM | CC(C)(C)OC(=O)NCc1ccccc1-c1cccc(C(=O)NCCc2ccccn2)n1 [Example 11]
< 100 µM | O=C(NCc1ccccc1-c1cccc(C(=O)NCc2ccc(F)cc2F)n1)OCc1ccccc1 [Example 16]
< 100 µM | O=C(NCc1ccccc1-c1cccc(C(=O)NCc2ccc(F)cc2F)c1)OCc1ccccc1 [Example 15]
< 100 µM | CC(C)CCNC(=O)c1cncc(-c2ccccc2CNC(=O)OC(C)(C)C)c1 [Example 7]
6 µM | COc1ccc(CC(=O)NCc2ccccc2-c2cccc(C(=O)NCc3ccc(F)cc3F)c2)cc1 [Example 27]
7.4 µM | COc1ccc(CC(=O)NCc2ccccc2-c2cncc(C(=O)NCc3ccc(F)cc3F)c2)cc1 [Example 26]
< 100 µM | COc1ccc(CC(=O)NCc2ccccc2-c2cccc(C(=O)Nc3ccc(OC)cc3)n2)cc1 [Example 20, 6-(2-{[2-(4-Methoxyphenyl)acetylamino]methyl}phenyl)pyridine-2-carboxylic acid (4-methoxyphenyl)amide]
4.2 µM | COc1ccc(CC(=O)NCc2ccccc2-c2cccc(C(=O)NCCC(C)C)c2)cc1 [Example 28]
< 100 µM | CC(C)CCNC(=O)c1cccc(-c2ccccc2CNC(=O)OCc2ccccc2)c1 [Example 14]
< 100 µM | COc1ccc(CC(=O)NCc2ccccc2-c2cccc(C(=O)NCCc3ccccn3)n2)cc1 [Example 22]
7 µM | Cc1ccc(C(=O)NCCC(C)C)cc1-c1ccccc1CNC(=O)OCc1ccccc1 [Example 13]
3.1 µM | COc1ccc(CCC(=O)NCc2ccccc2-c2cc(C(=O)NCCC(C)C)ccc2C)cc1 [Example 30]
< 100 µM | CC(C)(C)OC(=O)NCc1ccccc1-c1cccc(C(=O)NCc2ccc(F)cc2F)n1 [Example 6]
6.1 µM | Cc1ccc(C(=O)NCCC(C)C)cc1-c1ccccc1CNC(=O)OC(C)(C)C [Example 4]
4.2 µM | CC(C)C[C@H](NC(=O)c1cccc(-c2ccccc2CNC(=O)O[C@@H](C)c2ccccc2)n1)C(N)=O [Example 18]
< 100 µM | CC(C)(C)OC(=O)NCc1ccccc1-c1ccc(Cl)c(C(=O)NCc2ccc(F)cc2F)c1 [Example 3]
3 µM | COc1ccc(NC(=O)c2cccc(-c3ccccc3CNC(=O)OC(C)(C)C)n2)cc1 [Example 9]
4 µM | COc1ccc(CC(=O)NCc2ccccc2-c2cc(C(=O)NCCC(C)C)ccc2C)cc1 [Example 29]
< 100 µM | CC(C)CCNC(=O)c1cccc(-c2ccccc2CNC(=O)OCc2ccccc2)n1 [Example 17]
< 100 µM | COc1ccc(CCC(=O)NCc2ccccc2-c2cccc(C(=O)Nc3ccc(OC)cc3)n2)cc1 [Example 23]
< 100 µM | CC(C)(C)OC(=O)NCc1ccccc1-c1cccc(C(=O)NCc2ccc(F)cc2F)c1 [Example 2]
2 µM | COc1ccc(NC(=O)c2cccc(-c3ccccc3CNC(=O)O[C@@H](C)c3ccccc3)n2)cc1 [Example 19]
< 100 µM | CC(C)(C)OC(=O)NCc1ccccc1-c1cncc(C(=O)NCc2ccc(F)cc2F)c1 [Example 8]
